Test results as given in publication PMC10545747, “Development of cyclopeptide inhibitors of cGAS targeting protein-DNA interaction and phase separation” (Nature Communications, 2023).
Values joined by “and” are separate entries in the source; they are usually repeats but may differ in a detail not shown here. Equal entries are not always repeated. “Also recorded” adds a separate entry of the source. Square brackets hold non-standard residues; d marks the D form. Peptide text beside a SMILES is read from it.

Legend:
[1] = tested on: Trex1 knockdown L929 cells; test: qPCR of Ifnb1 and Cxcl10 mRNA after Trex1 siRNA; type: cell-based, mouse
Experimental: (§1) The indicated cells were stimulated with either ISD (Sangon Biotech), HSV-1 (Provided by Dr. Zhengfan Jiang), HSV60mer (Sangon Biotech), SATE-cddA[70], 2’3’-cGAMP (Invivogen, Cat# tlrl-nacga23-1), ADU-S100 (MedChemExpress, Cat# HY-12885A) or Poly(I:C) (Invivogen, Cat# tlrl-pic) after XQ2 or XQ2B treatment. Total RNA was isolated from indicated cells that incubated with the drugs for indicated time or mice tissues by using NucleoZOL reagent (MACHEREY-NAGEL) according to the manufacturer’s instructions. The quantifications of mRNA levels were carried out by real-time PCR using a PerfectStart® Uni RT&qPCR Kit (TransGen Biotech) on the QuantStudio 5 qPCR machine (Applied Biosystems). Samples were carried out in triplicate and the target CT values were normalized to GAPDH CT values. Primers of qPCR used in this study can be found in Supplementary Table S2.
siRNA of TREX1 (siTREX1) was transfected into the indicated cells by Lipofectamine RNAiMAX (Invitrogen) according to the manufacturer’s instructions. Human siTREX1, mouse siTrex1 and negative control siRNAs were purchased from Sangon Biotech. The sequences of siRNAs oligonucleotides can be found in Supplementary Table S2.
Supplementary Fig. 9. XQ2B reduces interferon expression induced by Trex1 deficiency. […]
Trex1 knockdown L929 cells were treated with DMSO or XQ2B (20 μM) for 24 h, and the mRNA levels of Trex1 (c),
Ifnb1 and Cxcl10 (d) mRNA was measured by qPCR. (c) p < 0.0001, (d) p = 0.003 (Ifnb1); p = 0.0003 (Cxcl10). (e, f) […]
(§2) Source data are provided as a Source Data file.

in vivo = conditions: C57BL/6, mouse, iv, 10 mg/kg
Experimental: Whole blood samples were collected in EDTA-K2 surface-coated tubes at 0.083, 0.25, 0.5, 1, 2, 5, 7, 24 h post administration. The results were analyzed by LC-MS.

[2] = tested on: murine fibroblast L929 cells; test: qPCR of Ifnb1/Cxcl10 mRNA in L929 cells (ISD or HSV-1); type: cell-based, mouse; design: key to Ifnb1 mRNA (Fig. S2c) / Cxcl10 mRNA (Fig. S2c) / Ifnb1 mRNA (Fig. S2d) / Cxcl10 mRNA (Fig. S2d): mRNA level normalized to GAPDH (relative expression)
Experimental: as §1, with “S2. […]” for “S2.”
(c) L929, p = 0.0005 (Ifnb1),
BMDMs, p = 0.0001 (Ifnb1), p < 0.0001 (Cxcl10).
representative of three independent experiments in (a-g). (Data are presented as mean ± SD, n = 3 independent
as §2

hcGAS-FL (D191R) mutant = target: T1, hcGAS-FL (D191R) mutant (Homo sapiens, UniProt Q8N884, D191R); test: Surface plasmon resonance (SPR); type: binding
T1 construct: The gene encoding full-length human cGAS (hcGAS-FL); 6xHis-SUMO (N, cleaved yes); made in house; host or cells: Escherichia coli BL21 (DE3)
Experimental: All SPR binding studies were performed with a Biacore 8 K instrument (GE Healthcare Life Sciences). hcGAS-FL / hcGAS-ΔN (1 mg mL^−1) was immobilized in a CM5 chip by EDC/NHS method. The tested peptide was diluted with running buffer (20 mM HEPES, pH 7.5, 125 mM KCl,10 mM MgCl2). All the samples contained the same concentration of DMSO (0.5%). The tested peptide was injected at a flow rate of 30 μL min^−1 for 200 s of association, followed by 200 s of disassociation at 25 °C. The final graphs were obtained by subtracting blank sensorgrams. The data were analyzed with Biacore Insight Evaluation software.
Supplementary Fig. 5. The binding site of XQ2 may locate at the cGAS-dsDNA interface. (a) The 2D schematic of docked structure of XQ2 with cGAS (PDB ID: 4O69). (b) Structure activity relationship (SAR) analysis of XQ2 a nd its analogues based on the docked structure of the peptides with cGAS. (c) FAM-ISD (40nM) was incubated with the indicated doses of hcGAS-FL or hcGAS-FL (D191R) mutant, and the polarization signal was detected by a microplate reader. (d) SPR analysis of the binding of hcGAS-FL (D191R) mutant with XQ2. The binding affinity (Kd) […]
Data are representative of three independent experiments in (c). (Data […]
as §2
XQ- Sequence Inhibition % […]

T1 sequence (Q8N884 whole entry D191R): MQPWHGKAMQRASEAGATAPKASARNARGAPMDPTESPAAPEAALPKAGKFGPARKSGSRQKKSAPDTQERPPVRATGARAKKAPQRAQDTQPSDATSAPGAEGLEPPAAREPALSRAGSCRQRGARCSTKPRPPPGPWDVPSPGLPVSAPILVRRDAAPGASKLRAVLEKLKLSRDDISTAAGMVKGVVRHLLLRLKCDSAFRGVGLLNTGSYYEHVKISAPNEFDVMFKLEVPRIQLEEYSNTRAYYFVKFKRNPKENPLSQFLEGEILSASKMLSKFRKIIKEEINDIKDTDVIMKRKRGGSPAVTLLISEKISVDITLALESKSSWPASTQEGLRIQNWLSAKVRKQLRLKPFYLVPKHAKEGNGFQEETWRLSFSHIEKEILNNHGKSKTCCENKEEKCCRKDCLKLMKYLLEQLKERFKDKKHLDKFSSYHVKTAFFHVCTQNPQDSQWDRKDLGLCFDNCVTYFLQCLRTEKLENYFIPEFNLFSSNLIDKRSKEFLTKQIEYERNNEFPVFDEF

| Compound | Relative mRNA level Cxcl10 ([1]; Fig. S9d, Trex1 knockdown (siTrex1 +) L929 cells, XQ2B +, individual replicates, siTrex1 alone 5.56-7.04) | Relative mRNA level Ifnb1 ([1]; Fig. S9d, Trex1 knockdown (siTrex1 +) L929 cells, XQ2B +, individual replicates, siTrex1 alone 23.9-27.1) | expression of Ifnb1, Cxcl10 with Trex1-siRNA ([1]; L929, 20 μM, 24 h) | half-life (in vivo) [min] | level at 0.083 h (in vivo; Conc (ng/ml), Fig. S11a) [µg/mL] | level at 0.25 h (in vivo; Conc (ng/ml), Fig. S11a) [µg/mL] | level at 0.5 h (in vivo; Conc (ng/ml), Fig. S11a) [µg/mL] | Ifnb1 and Cxcl10 expression induced by ISD and HSV-1 ([2]; L929, 10 μM) | Cxcl10 mRNA (Fig. S2d) ([2]; L929, HSV-1+XQ2) | Ifnb1 mRNA (Fig. S2d) ([2]; L929, HSV-1+XQ2) | Cxcl10 mRNA (Fig. S2c) ([2]; L929, ISD+XQ2) | Ifnb1 mRNA (Fig. S2c) ([2]; L929, ISD+XQ2) | Cxcl10 mRNA (Fig. S2c) ([2]; L929, XQ2 alone) | Cxcl10 mRNA (Fig. S2d) ([2]; L929, XQ2 alone) | Ifnb1 mRNA (Fig. S2c) ([2]; L929, XQ2 alone) | Ifnb1 mRNA (Fig. S2d) ([2]; L929, XQ2 alone) | binding to hcGAS-FL (D191R), SPR (hcGAS-FL (D191R) mutant) |
| --- | --- | --- | --- | --- | --- | --- | --- | --- | --- | --- | --- | --- | --- | --- | --- | --- | --- |
| CC(C)C[C@@H]1NC(=O)[C@H](CCCNC(=N)N)NC(=O)[C@H](C(C)C)NC(=O)[C@@H]2CCCN2C(=O)[C@@H](Cc2ccccc2)NC(=O)[C@H](CC(C)C)NC(=O)[C@H](CCCNC(=N)N)NC(=O)[C@H]([C@@H](C)O)NC(=O)[C@H](C)NC(=O)[C@@H](Cc2ccccc2)NC1=O [XQ2B] (cyclo([dF]ATRL[dF]PVRL)) | 1.176 and 1.276 and 1.118 | 15.103 and 18.4861 and 15.5105 | markedly inhibited the expression of these genes in mouse L929 and human THP1 cells with Trex1-siRNA | 66 | 101 | 63.6 | 50.4 | – | – | – | – | – | – | – | – | – | – |
| CC(C)C[C@@H]1NC(=O)[C@H](CCCNC(=N)N)NC(=O)[C@H](C(C)C)NC(=O)[C@@H]2CCCN2C(=O)[C@@H](Cc2ccccc2)NC(=O)[C@H](CC(C)C)NC(=O)[C@H](CCCNC(=N)N)NC(=O)[C@H](C(C)C)NC(=O)[C@H](C)NC(=O)[C@@H](Cc2ccccc2)NC1=O [XQ2, Cyclo (LfAVRLfPVR)] (cyclo(L[dF]AVRL[dF]PVR)) | – | – | – | – | – | – | – | significantly inhibited the expression of Ifnb1 and its downstream gene Cxcl10 | 14.7732 and 16.7433 and 18.5165 | 2.433 and 2.873 and 2.57 | 490.131 and 497.538 and 429.114 | 47.632 and 43.4073 and 39.6029 | 1.1537 and 1.297 and 1.725 | 1.1537 and 1.297 and 1.725 | 1.659 and 1.773 and 1.653 | 1.659 and 1.773 and 1.653 | markedly reduced the binding affinity of XQ2 with cGAS; also recorded: could not be determined by saturation binding |
